Structures are written as SMILES. The source made the active and inactive calls. How the calls were made is not given here.

Here are results for 58 compounds from PubChem BioAssay AID489032 (Sanford-Burnham Center for Chemical Genomics, 2010).

The assay relates to UPR adaptive arm reporter cells, luciferase luminescence. The assay is described as follows: adaptive unfolded protein response reporter activation – cell-based, luciferase luminescence, dose response (AID 489032).

Regarding `Cc1cc(NC(=O)c2cncc(Br)c2)ccc1NC(=O)c1cc2ccccc2o1`, the EC50 was > 80 µM (inactive).
For `Nc1nc(Nc2cccc(C(F)(F)F)c2)nc(C(F)(F)F)n1`, the EC50 was 56.6 µM (inactive).
As to `Cc1ccc2c(=O)[nH]c(Nc3nc(C)cc(-c4ccccc4)n3)nc2c1`, the EC50 was > 80 µM (inactive).
In the case of `CC(C)=CCc1c2c(c3occ(-c4ccc(O)cc4)c(=O)c3c1O)C=CC(C)(C)O2` it was > 80 µM (inactive); in that of `COc1ccc(C(CCNC(C)c2ccccc2)c2ccc(F)cc2)cc1` (stereo not drawn), > 80 µM (inactive).
In the case of `NCCc1c(-c2ccccc2)n(-c2ccccc2)c2ccccc12` it was > 80 µM (inactive); in that of `CCOc1cc(CNC(C)(C)CO)cc(Br)c1OCc1ccc(Cl)cc1Cl`, 20 µM.
To `O=C(NC1CCCCC1)c1cccc2c1C(=O)c1ccc(-c3ccc(OC(F)(F)F)cc3)cc1S2(=O)=O` belongs > 80 µM (inactive); to `COc1ccc(-c2nnc(SCC(=O)Nc3sc4c(c3C#N)CCCC4)n2-c2ccccc2)cc1`, > 80 µM (inactive).
For `CC(C)CN=C(NS(=O)(=O)c1ccccc1)C(Cl)(Cl)Cl`, the EC50 was > 80 µM (inactive).
To `CCOC(=O)c1nnc(-c2ccc(C)cc2)nc1Sc1ccccc1Cl` belongs > 80 µM (inactive); to `CCc1nc(C)cn1S(=O)(=O)c1cc([N+](=O)[O-])ccc1Cl`, > 80 µM (inactive).
For the compound `Cc1c(CCOC(=O)C23CC4(C)CC(C)(CC(C)(C4)C2)C3)sc[n+]1CC(=O)c1ccccc1`, the EC50 is > 80 µM (inactive).
As for `Oc1cc(-c2cccnc2)cc2cccnc12`, the EC50 is > 80 µM (inactive).
In the case of `CC(=O)Oc1ccc(-c2ccc(C(=O)OCC(=O)N(C)CC(=O)Nc3ccccc3Cl)cc2)cc1` it was 2.46 µM; in that of `N#CCC(=O)N/N=C/c1cn(Cc2ccc3ccccc3c2)c2ccccc12`, 71 µM (inactive).
In the case of `N#C/C(=C/c1ccc(N2CCCC2)c([N+](=O)[O-])c1)c1nc2ccccc2[nH]1` it was > 80 µM (inactive); in that of `CCOc1ccc(NC(=S)NC(=O)/C=C/c2ccc(C)cc2)c([N+](=O)[O-])c1`, > 80 µM (inactive); in that of `C[C@@H]1C[C@H]2[C@@H]3CCC4=CC(=O)C=C[C@]4(C)[C@@]3(Cl)[C@@H](O)C[C@]2(C)[C@@]1(OC(=O)c1ccco1)C(=O)CCl`, > 80 µM (inactive).
To `CC(C)C(=O)N(c1cc2sc(=O)oc2c2ccccc12)S(=O)(=O)c1cccs1` belongs > 80 µM (inactive); to `COc1ccc2cc1Oc1ccc(cc1)CC1c3c(cc(OC)c4c3Oc3cc5c(cc3O4)CCNC5C2)CCN1C` (stereo not drawn), > 80 µM (inactive); to `O=C(COC(=O)c1ccc2[nH]c3c(c2c1)CCCC3)Nc1ccccc1Cl`, > 80 µM (inactive).
For `Cc1ccc2nc(N(CCCN(C)C)C(=O)c3ccc(S(=O)(=O)N4CCc5ccccc5C4)cc3)sc2c1`, the EC50 was > 80 µM (inactive).
To `O=C(NCc1ccccc1Br)c1cccc2c1C(=O)c1ccc(-c3ccc(OC(F)(F)F)cc3)cc1S2(=O)=O` belongs 19.2 µM; to `CCOC(=O)/C=c1\s/c(=C\c2ccc3cc(OC)ccc3c2)c(=O)n1CC(=O)NCC1CCCO1` (stereo not drawn), 54.1 µM (inactive); to `CCOC(=O)c1nnc(-c2ccc(C)cc2)nc1Oc1ccccc1Cl`, > 80 µM (inactive).
To `Cc1c(Cl)cccc1Nc1nc(NCCO)c2ccccc2n1` belongs 26.6 µM (inactive); to `Cn1nc(C(F)(F)F)c(/C=N/OC(=O)c2ccccc2Cl)c1SCc1ccccc1Cl`, 22.2 µM (inactive).
As for `CN(C)S(=O)(=O)c1ccc(N2CCCC2)c(C(=O)Nc2nccs2)c1`, the EC50 is 50 µM (inactive).
In the case of `Cc1cc(NC(=O)CSc2nc3cc(Cl)ccc3c(=O)n2Cc2ccco2)no1` it was > 80 µM (inactive); in that of `CCOC(=O)c1nnc(-c2ccc(C)cc2)nc1Oc1ccc(Cl)cc1Cl`, 40 µM (inactive); in that of `CN1C(=O)/C(=C/c2ccc(C(=O)NC3CCCC3)cc2)Oc2ccccc21`, > 80 µM (inactive).
To `FC(F)(F)c1nc2ccccc2n2c(-c3ccc(Cl)cc3)nnc12` belongs > 80 µM (inactive); to `CCN(CC)S(=O)(=O)c1ccc(N/N=C(\C)c2ccc3c(c2)OCO3)c([N+](=O)[O-])c1`, 22.1 µM (inactive); to `O=C1NC(=O)N(Cc2ccccc2Cl)C(=O)/C1=C/c1cccs1`, > 80 µM (inactive).
For the compound `COc1ccc(/C=N/Nc2nnc(-c3ccccc3)c(=O)[nH]2)cc1`, the EC50 is 19.8 µM.
To `COc1ccc(NC(=O)C(=O)N/N=C\c2ccc(CNC(=O)C(=O)Nc3ccc(C)c(C)c3)o2)c(OC)c1` belongs > 80 µM (inactive); to `COC(=O)C1C(O)=C(C=Nc2cccc3ccccc23)C(=O)CC1(C)C` (stereo not drawn), 30.1 µM (inactive); to `CC(=O)c1cccc(Nc2nc(-c3cccc([N+](=O)[O-])c3)cs2)c1`, > 80 µM (inactive).
To `NS(=O)(=O)c1ccc(N/N=C2/CCCCC2C2CCCCC2)c([N+](=O)[O-])c1` (stereo not drawn) belongs > 80 µM (inactive); to `O=CC1=C(c2ccccc2)Oc2ccccc2O1`, > 80 µM (inactive); to `COc1cc(/C=N/Nc2nc(Nc3ccccc3)nc(-n3nc(C)cc3C)n2)cc(OC)c1OC`, > 80 µM (inactive).
To `O=c1cc(C(Cl)(Cl)Cl)oc2c1ccc1ccccc12` belongs 18.1 µM.
Take `CC(C)CC(NC(=O)c1ccc(Cl)cc1)C(=O)OCC(=O)c1ccc2c(c1)NC(=O)CO2` (stereo not drawn): the EC50 is > 80 µM (inactive).
In the case of `C/C(=N\Nc1ncnc2sc(C)c(C)c12)c1ccccn1` it was > 80 µM (inactive); in that of `Cc1ccc(Cl)cc1N1CCN(Cc2nc3c(c(=O)[nH]c(=O)n3C)n2CCc2ccccc2)CC1`, > 80 µM (inactive); in that of `CCOC(=O)N1CCN(S(=O)(=O)c2ccc(C(=O)Nc3nc4c(s3)CC(C)CC4)cc2)CC1` (stereo not drawn), > 80 µM (inactive).
On to `Cc1ccc2nc(SCC(=O)Nc3cc(C(F)(F)F)ccc3N3CCOCC3)[nH]c2c1`, for which the EC50 is > 80 µM (inactive).
For `Cc1nc(NC(=O)CSc2ccc(-c3nc4ccccc4[nH]3)cn2)sc1C`, the EC50 was > 80 µM (inactive).
Take `COc1ccc(-c2ccc(C#N)c(SCC(=O)Nc3sc4c(c3C#N)CCC4)n2)cc1OC`: the EC50 is > 80 µM (inactive).
As to `COc1ccccc1NC(=O)c1cc2c(CO)cnc(C)c2oc1=Nc1ccccc1`, the EC50 is 25.7 µM (inactive).
As for `Cc1ccc(S(=O)(=O)N(CC(=O)N/N=C/c2ccc(F)cc2)c2cccc3cccnc23)cc1`, the EC50 was > 80 µM (inactive).
In the case of `CC1CCCCC1N1CN=C(Nc2nc3ccccc3s2)NC1` (stereo not drawn) it was > 80 µM (inactive); in that of `COc1ccc(-c2coc3cc4oc(=O)cc(-c5ccccc5)c4cc23)cc1F`, 43.3 µM (inactive).
Consider `CCOc1ccc(Cn2c3ccc(OC)cc3c3nc4ccccc4nc32)cc1OC`, for which the EC50 is > 80 µM (inactive).
In the case of `CCOC(=O)c1c(NC(=O)/C=C/C(=O)O)sc(C)c1-c1ccc(C(C)(C)C)cc1` it was 25.6 µM (inactive); in that of `Cc1cccc(NC(=O)CSc2nc(C)c(CC(=O)c3ccc(Br)cc3)c(C)c2C#N)c1C`, > 80 µM (inactive).
`Clc1ccc2c(c1)C(N1CCNCC1)Cc1ccccc1S2` (stereo not drawn): the EC50 is > 80 µM (inactive).

As a reminder, the EC50 is the midpoint of the concentration-response curve.
